Results as given in patent publication US20210386829A1, “COMPOSITIONS AND METHODS FOR MODULATING CGRP SIGNALING TO REGULATE INNATE LYMPHOID CELL INFLAMMATORY RESPONSES” (The Broad Institute, Inc., priority 2018, published 2021).

Tested on: IL-33-induced airway inflammation in RAG2 KO mice
Test: IL-33-induced airway inflammation in RAG2 KO mice, intranasal co-administration of CGRP
Assay type: in vivo, mouse
Settings: IL-33+CGRP vs IL-33 alone
Excerpt: Animals. All experiments involving mice were approved by the Institutional Animal Care and Use Committee (IACUC) at Brigham and Women's Hospital. Mice were maintained in the animal facility at Brigham and Women's Hospital under specific pathogen-free conditions with food and water ad libitum and a 12-hour dark/light cycle. Mice were age- and sex-matched for experiments and were randomly assigned to experimental groups. C57BL/6J mice and RAG2 KO mice were purchased from the Jackson Laboratory. CGRP-GFP-hDTR mice were kindly provided by I. Chiu (Harvard Medical School, Boston).
Cytokine-induced airway inflammation. Mice received nasally 500 ng IL-25, 500 ng IL-33, 20 ug NMU or 6.65 ug CGRP diluted in DPBS for three consecutive days. For nasal administration, mice were lightly anesthetized with Isoflurane (Cat #07-893-1389; Patterson Veterinary). For induction of inflammatory ILC2s, mice received intraperitoneally 500 ng IL-25 for three consecutive days. One day after the last treatment, mice were euthanized and perfused with 8 ml cold PBS via the right heart ventricle. After exposure of the trachea, a small incision was made at the top of the trachea and a curved gavage needle was inserted. Lungs were washed with 1.5 ml cold PBS via the needle and the retrieved bronchoalveolar lavage fluid was centrifuged at 1300 rpm for 5 min at 4 C. After centrifugation, the supernatant was frozen at −20° C. and the cell pellet was resuspended in 250 ul complete medium and stored on ice until flow cytometric analysis. The post-caval lung lobe was transferred into 10% buffered formalin and stored at room temperature until paraffin embedding for histological analysis. The other lung lobes were dissociated using the lung dissociation kit (Cat #130-095-927; Miltenyi Biotec) and automated tissue dissociator (gentleMACS; Miltenyi Biotec) as described above with the adjustment that after running program lung_02, the single cell suspension was centrifuged at 1300 rpm for 5 min at 4° C. and 1 ml of the supernatant was frozen at −20° C. Single-cell suspension was resuspended in complete cell culture medium and stored on ice until further processing.
For cell counts, lung cells were transferred into FACS tubes and stained with 7AAD. Precision Count Beads (Cat #424902; BioLegend) were added according to manufacturer's instructions. Cells and beads were acquired on a BD LSRFortessa (BD Biosciences) and cell numbers were calculated based on number of acquired live (7AAD−) cells and number of acquired beads.
For flow cytometric analysis, lung cells were transferred into a 96 well V-bottom plate and stained with surface antibodies for 20 min at 4° C. in the dark. Cells were washed twice with DPBS containing 2% fetal bovine serum and transferred into 1.2 ml tubes for analysis by flow cytometry. For intracellular cytokine staining, cells were incubated in complete cell culture medium with 50 ng/ml phorbol 12-myristate 13-acetate (Sigma-Aldrich), 1 uM ionomycin (Sigma-Aldrich) and GolgiStop (Cat #554724; BD Biosciences) in a humidified incubator at 37° C. and 10% CO2. After 5 hours, cells were transferred into 96 well V-bottom plate, stained with Fixable Viability Dye eFluor 506 (Cat #65-0866-14; Thermo Fisher) and surface antibodies for 20 min at 4° C. in the dark and washed twice with DPBS containing 2% fetal bovine serum. Then, cells were incubated with BD Cytofix/Cytoperm Buffer (Cat #51-2090KZ; BD Biosciences) for 20 min, followed by a wash with BD Perm/Wash Buffer (Cat #51-2091KZ; BD Biosciences). Subsequently, cells were incubated with antibodies targeting intracellular proteins diluted in BD Perm/Wash Buffer for 20 min and after two wash steps, transferred into 1.2 ml tubes for analysis by flow cytometry. […]

Q: Which “Il5 and Il13 transcripts in lung tissue” value does the source give for “CGRP: neuropeptide calcitonin gene-related peptide (encoded by Calca), ligand of the Ramp1/Calcrl receptor; given at 100 nM in vitro, 6.65 ug nasally” here?
A: significantly reduced

Q: And the “concentration of IL-5 and IL-13 protein in lung homogenates and BALF” value?
A: significantly reduced

Q: And the “eosinophil numbers in lung tissue and BALF” value?
A: significantly reduced

Q: What about the “frequency of IL-5-positive ILCs” value of the same substance?
A: no difference

Q: What about the “frequency of IL-13-positive ILC2s” value of the same substance?
A: significantly lower

Q: What about the “total numbers of lung ILCs” value of the same substance?
A: marked reduction

Q: What about the “frequency of lung ILCs” value (intranasal, three consecutive days) of the same substance?
A: non-significant trend towards a reduced frequency
